Experiments:
[1] = Cytotoxicity against human MT4 cells assessed as reduction on cell growth by MTT assay; type: toxicity, cell-based
[2] = Selectivity index, ratio of CC50 for cytotoxicity against human MT4 cells to EC50 of Anti-HIV activity against HIV-1 IIIB infected in human MT4 cells; type: toxicity, cell-based; details: read-out: Ratio CC50/EC50
[3] = system: Human immunodeficiency virus 1; assay: Antiviral activity against HIV-1 L100I mutant infected in human MT4 cells assessed as reduction in viral replication by MTT assay; type: functional, organism-based; details: Human immunodeficiency virus 1, L100I mutant
[4] = system: Human immunodeficiency virus 1; assay: Antiviral activity against HIV-1 E138K mutant infected in human MT4 cells assessed as reduction in viral replication by MTT assay; type: functional, organism-based; details: Human immunodeficiency virus 1, E138K mutant
[5] = system: Human immunodeficiency virus 1; assay: Antiviral activity against HIV-1 Y181C mutant infected in human MT4 cells assessed as reduction in viral replication by MTT assay; type: functional, organism-based; details: Human immunodeficiency virus 1, Y181C mutant
[6] = system: Human immunodeficiency virus 1; assay: Antiviral activity against HIV-1 K103N mutant infected in human MT4 cells assessed as reduction in viral replication by MTT assay; type: functional, organism-based; details: Human immunodeficiency virus 1, K103N mutant
[7] = system: Human immunodeficiency virus 1; assay: Antiviral activity against HIV-1 K103N-Y181C mutant infected in human MT4 cells assessed as reduction in viral replication by MTT assay; type: functional, organism-based; details: Human immunodeficiency virus 1, K103N-Y181C mutant
[8] = system: Human immunodeficiency virus 1; assay: Antiviral activity against HIV-1 Y188L mutant infected in human MT4 cells assessed as reduction in viral replication by MTT assay; type: functional, organism-based; details: Human immunodeficiency virus 1, Y188L mutant
[9] = system: Human immunodeficiency virus 1; assay: Antiviral activity against HIV-1 F227L-V106A mutant infected in human MT4 cells assessed as reduction in viral replication by MTT assay; type: functional, organism-based; details: Human immunodeficiency virus 1, F227L-V106A mutant
[10] = target: Human immunodeficiency virus type 1 reverse transcriptase (Human immunodeficiency virus 1, UniProt Q72547); assay: Inhibition of wild type HIV-1 Reverse transcriptase
[11] = system: Human immunodeficiency virus 1; assay: Antiviral activity against HIV-1 ROD infected in human MT4 cells assessed as reduction in viral replication by MTT assay; type: functional, organism-based
[12] = system: Human immunodeficiency virus 1; assay: Antiviral activity against HIV-1 IIIB infected in human MT4 cells assessed as reduction in viral replication by MTT assay; type: functional, organism-based; details: Human immunodeficiency virus 1, IIIB

SMILES | CC50 [1] | selectivity ratio [2] | EC50 [3] | EC50 [4] | EC50 [5] | EC50 [6] | EC50 [7] | EC50 [8] | EC50 [9] | IC50 [10] | EC50 [11] | EC50 [12]
Cn1c(Cn2ccc(C(F)(F)F)c(Oc3ccc(-c4cc(F)cc(C#N)c4)c(F)c3)c2=O)n[nH]c1=O | 105 µM | 143 | 1860 nM | 1340 nM | 12.1 µM | 2470 nM | 36.6 µM | 39.8 µM | > 35 µM | 1.02 µM | > 35 µM | 740 nM
Cn1c(Cn2ccc(C(F)(F)F)c(Oc3c(F)cc(-c4ccc(F)c(C#N)c4)cc3F)c2=O)n[nH]c1=O | 18.9 µM | 30.7 | 1610 nM | 2090 nM | 4.69 µM | 1200 nM | > 35 µM | > 35 µM | > 35 µM | 1.65 µM | > 35 µM | 620 nM
Cn1c(Cn2ccc(C(F)(F)F)c(Oc3ccc(-c4ccc(F)c(C#N)c4)cc3Cl)c2=O)n[nH]c1=O | 24.4 µM | 5.39 | 3310 nM | 6780 nM | > 35 µM | 3870 nM | > 35 µM | > 35 µM | > 35 µM | 10.3 µM | > 35 µM | 4530 nM
Cn1c(Cn2ccc(C(F)(F)F)c(Oc3ccc(-c4ccc(F)c(C#N)c4)cc3F)c2=O)n[nH]c1=O | 65.5 µM | 12.8 | 7270 nM | 7720 nM | 39.6 µM | 7270 nM | > 35 µM | 44.8 µM | > 35 µM | 7 µM | > 35 µM | 5120 nM
Cn1c(Cn2ccc(C(F)(F)F)c(Oc3ccc(-c4cccc(C#N)c4)c(F)c3F)c2=O)n[nH]c1=O | 48.8 µM | 50.8 | 1590 nM | 1600 nM | 8.36 µM | 2870 nM | > 35 µM | > 35 µM | > 35 µM | 1.31 µM | > 35 µM | 960 nM
Cn1c(Cn2ccc(C(F)(F)F)c(Oc3cc(C#N)cc(-c4ccc(C#N)cc4)c3)c2=O)n[nH]c1=O | 142 µM | 3110 | 70 nM | 82 nM | 0.45 µM | 78 nM | 2 µM | 0.61 µM | > 35 µM | 0.52 µM | > 35 µM | 46 nM
Cn1c(Cn2ccc(C(F)(F)F)c(Oc3c(F)cc(-c4ccc(C#N)cc4)cc3F)c2=O)n[nH]c1=O | 21.2 µM | 29.5 | 1690 nM | 1460 nM | 4.97 µM | 1140 nM | > 35 µM | > 35 µM | > 35 µM | 3.13 µM | > 35 µM | 720 nM
Cc1cc(-c2cccc(F)c2)ccc1Oc1c(C(F)(F)F)ccn(Cc2n[nH]c(=O)n2C)c1=O | 26.7 µM | 5.2 | 3640 nM | 3990 nM | > 35 µM | 2590 nM | > 35 µM | > 35 µM | > 35 µM | 5.44 µM | > 35 µM | 5140 nM
Cc1cc(-c2ccc(C#N)cc2)ccc1Oc1c(C(F)(F)F)ccn(Cc2n[nH]c(=O)n2C)c1=O | 33.4 µM | 21.7 | 1630 nM | 2420 nM | 6.26 µM | 1650 nM | 6.55 µM | > 35 µM | > 35 µM | 4.8 µM | > 35 µM | 1540 nM
Cc1cc(-c2cc(F)cc(C#N)c2)ccc1Oc1c(C(F)(F)F)ccn(Cc2n[nH]c(=O)n2C)c1=O | 23.3 µM | 17.6 | 1900 nM | 1900 nM | 5.96 µM | 1270 nM | 6.89 µM | > 35 µM | > 35 µM | 5.34 µM | > 35 µM | 1330 nM
COc1cc(-c2ccc(F)c(C#N)c2)ccc1Oc1c(C(F)(F)F)ccn(Cc2n[nH]c(=O)n2C)c1=O | 102 µM | 5.74 | 4410 nM | 21800 nM | 14.7 µM | 11200 nM | > 35 µM | > 35 µM | > 35 µM | 42.5 µM | > 35 µM | 17900 nM
Cn1c(Cn2ccc(C(F)(F)F)c(Oc3ccc(-c4ccc(F)c(C#N)c4)c(F)c3)c2=O)n[nH]c1=O | 69.5 µM | 78.5 | 1750 nM | 1510 nM | 22.3 µM | 2140 nM | 44.8 µM | 41.4 µM | 42.4 µM | 1.12 µM | > 35 µM | 890 nM
Cn1c(Cn2ccc(C(F)(F)F)c(Oc3ccc(-c4ccc(C#N)cc4)cc3Cl)c2=O)n[nH]c1=O | 21.5 µM | 3.58 | 4550 nM | 6180 nM | > 35 µM | 6350 nM | > 35 µM | > 35 µM | > 35 µM | 6.73 µM | > 35 µM | 6020 nM
Cn1c(Cn2ccc(C(F)(F)F)c(Oc3ccc(-c4cccc(F)c4)c(F)c3)c2=O)n[nH]c1=O | 51.5 µM | 36.4 | 1520 nM | 2160 nM | 28.6 µM | 4390 nM | > 35 µM | > 35 µM | > 35 µM | 2.33 µM | > 35 µM | 1420 nM
Cn1c(Cn2ccc(C(F)(F)F)c(Oc3cc(C#N)cc(-c4ccc(F)cc4)c3)c2=O)n[nH]c1=O | > 267 µM | > 4840 | 88 nM | 120 nM | 0.34 µM | 42 nM | 1.46 µM | 3.56 µM | > 35 µM | 0.11 µM | > 35 µM | 53 nM
Cc1cc(-c2ccc(F)cc2)ccc1Oc1c(C(F)(F)F)ccn(Cc2n[nH]c(=O)n2C)c1=O | 26 µM | 5.15 | 3260 nM | 3940 nM | > 35 µM | 3360 nM | > 35 µM | > 35 µM | > 35 µM | 5.4 µM | > 35 µM | 5050 nM

From ChEMBL document CHEMBL5113480, “Discovery of novel biphenyl-substituted pyridone derivatives as potent non-nucleoside reverse transcriptase inhibitors with promising oral bioavailability” (Eur J Med Chem, 2022)
